Like-named read-outs stand apart in the source and are kept apart here.
Legend:
[1] = system: avian influenza virus KBNP-0028 (KCTC 10866BP); assay type: cell-based, A/chicken/Korea/SNU0028/2000(H9N2)
[2] = system: CEF (chicken embryo fibroblasts)

Row | SMILES | antiviral activities (in words) [1] | Number of wells which hemagglutination occurs (among 6 wells) ([1]; 12.5 μg/mL) | Number of wells which hemagglutination occurs (among 6 wells) ([1]; 25 μg/mL) | Number of wells which hemagglutination occurs (among 6 wells) ([1]; 50 μg/mL) | Number of wells which hemagglutination occurs (among 6 wells) ([1]; 100 μg/mL) | Cytotoxicity, MTT assay reading ([2]; 6.25 μg/mL) | Cytotoxicity, MTT assay reading ([2]; 12.5 μg/mL) | Cytotoxicity, MTT assay reading ([2]; 25 μg/mL) | Cytotoxicity, MTT assay reading ([2]; 50 μg/mL) | Cytotoxicity, MTT assay reading ([2]; 100 μg/mL) | Cytotoxicity, MTT assay reading ([2]; 200 μg/mL)
1 | O=C(/C=C/CCc1ccc(O)cc1)CCc1ccc(O)c(O)c1 [12B-AJ-7A-1, 1-(3′,4′-dihydroxyphenyl)-7-(4″-hydroxyphenyl)-4(E)-hepten-3-one] | excellent antiviral activities | 3 | 3 | 2 | 0 | 0.424 | 0.418 | 0.347 | 0.478 | 0.411 | 0.531
2 | O=C(CCc1ccc(O)c(O)c1)CC(CCc1ccc(O)cc1)O[C@@H]1OC[C@@H](O)[C@H](O)[C@H]1O (stereo partly drawn) [12B-AJ-11B-1, 1-(3,4-dihydroxyphenyl)-7-(4-hydroxyphenyl)-3-heptanone-5-o-β-D-xylopyranose] | excellent antiviral activities | 3 | 3 | 3 | 1 | 0.535 | 0.399 | 0.483 | 0.487 | 0.316 | 0.363
3 | O=C(/C=C/CCc1ccc(O)c(O)c1)CCc1ccc(O)c(O)c1 [12B-AJ-7B, 1,7-bis(3,4-dihydroxyphenyl)-4(E)-hepten-3-one] | – | 3 | 3 | 3 | 3 | 0.413 | 0.364 | 0.345 | 0.399 | 0.427 | 0.560
4 | O=C(CCc1ccc(O)cc1)C[C@H](CCc1ccc(O)cc1)O[C@@H]1OC[C@@H](O)[C@H](O)[C@H]1O [12B-AJ-16A, (5S)1,7-bis(4-hydroxyphenyl)-5-o-β-D-xylopyranoside-heptane-3-one] | – | 3 | 3 | 1 | 0 | 0.441 | 0.427 | 0.432 | 0.451 | 0.302 | 0.309

Reference: US20110105738A1, “DIARYL HEPATONOID-BASED COMPOUNDS USEFUL AS VIRUS INHIBITORS” (priority 2008, published 2011)
